Test results taken from ChEMBL document CHEMBL5050844 (2019).

Columns and labels:
[1] = Induction of anti-CD3 antibodies-stimulated human T cell activation at 1 uM assessed fold increase in IL-2 secretion measured by ELISA assay; type: functional, T cell line; also: reference of the scale not given here
[2] = Induction of anti-CD3 antibodies-stimulated human T cell activation at 8 uM assessed fold increase in CD25 expression measured by ELISA assay; type: functional, T cell line; also: reference of the scale not given here
[3] = Induction of anti-CD3 antibodies-stimulated human T cell activation at 8 uM assessed fold increase in IL-2 secretion measured by ELISA assay; type: functional, T cell line; also: reference of the scale not given here
[4] = Induction of anti-CD3/CD28 antibodies-stimulated human T cell activation at 4 uM assessed fold increase in CD25 expression measured by ELISA assay; type: functional, T cell line
[5] = Induction of anti-CD3/CD28 antibodies-stimulated human T cell activation at 1 uM assessed fold increase in CD25 expression measured by ELISA assay; type: functional, T cell line
[6] = Induction of anti-CD3/CD28 antibodies-stimulated human T cell activation at 0.3 uM assessed fold increase in IL-2 secretion measured by ELISA assay; type: functional, T cell line
[7] = Induction of anti-CD3/CD28 antibodies-stimulated human T cell activation at 0.3 uM assessed fold increase in CD25 expression measured by ELISA assay; type: functional, T cell line
[8] = biological target: E3 ubiquitin-protein ligase CBL-B (Homo sapiens, UniProt Q13191); assay: Inhibition of N-terminal Avi-tagged human CBL-B (36 to 427 residues) incubated with 60 nM Src kinase for 1.5 hrs followed by incubation with fluorescently labeled UbcH5B-Ub for 1 hr and measured by TR-FRET assay; type: single protein
E3 ubiquitin-protein ligase CBL-B, sequence (Q13191 whole entry, the tested form may be a part): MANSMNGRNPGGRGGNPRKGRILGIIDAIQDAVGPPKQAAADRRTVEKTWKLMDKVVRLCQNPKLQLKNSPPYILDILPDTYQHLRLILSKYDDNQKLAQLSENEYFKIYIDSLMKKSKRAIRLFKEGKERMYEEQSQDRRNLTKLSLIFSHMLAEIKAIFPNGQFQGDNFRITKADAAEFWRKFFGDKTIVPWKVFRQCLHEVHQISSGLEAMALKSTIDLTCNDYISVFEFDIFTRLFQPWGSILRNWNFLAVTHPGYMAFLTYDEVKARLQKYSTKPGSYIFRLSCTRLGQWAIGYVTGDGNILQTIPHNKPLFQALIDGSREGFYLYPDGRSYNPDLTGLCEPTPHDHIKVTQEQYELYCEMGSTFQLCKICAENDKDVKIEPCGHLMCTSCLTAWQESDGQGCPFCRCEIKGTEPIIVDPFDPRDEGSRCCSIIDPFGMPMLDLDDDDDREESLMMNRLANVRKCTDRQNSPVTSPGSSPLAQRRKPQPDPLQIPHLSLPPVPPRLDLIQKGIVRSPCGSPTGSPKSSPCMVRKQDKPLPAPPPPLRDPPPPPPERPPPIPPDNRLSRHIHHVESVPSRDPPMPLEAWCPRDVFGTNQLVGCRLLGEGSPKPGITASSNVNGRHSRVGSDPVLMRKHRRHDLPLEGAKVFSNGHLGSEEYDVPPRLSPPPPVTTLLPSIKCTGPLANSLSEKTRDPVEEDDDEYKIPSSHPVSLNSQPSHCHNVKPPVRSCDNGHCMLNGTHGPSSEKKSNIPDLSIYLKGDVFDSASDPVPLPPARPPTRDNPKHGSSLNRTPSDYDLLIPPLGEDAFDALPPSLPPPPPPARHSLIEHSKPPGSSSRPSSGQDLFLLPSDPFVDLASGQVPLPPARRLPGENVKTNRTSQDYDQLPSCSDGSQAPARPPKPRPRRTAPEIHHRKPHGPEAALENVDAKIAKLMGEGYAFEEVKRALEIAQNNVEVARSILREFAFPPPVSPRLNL

[9] = Induction of anti-CD3/CD28 antibodies-stimulated human T cell activation at 1 uM assessed fold increase in IL-2 secretion measured by ELISA assay; type: functional, T cell line
[10] = Induction of anti-CD3 antibodies-stimulated human T cell activation at 1 uM assessed fold increase in CD25 expression measured by ELISA assay; type: functional, T cell line; also: reference of the scale not given here
[11] = Induction of anti-CD3/CD28 antibodies-stimulated human T cell activation at 4 uM assessed fold increase in IL-2 secretion measured by ELISA assay; type: functional, T cell line

C[C@H](Cc1nncn1C)c1cc(NC2COC2)nc(N2Cc3c(cccc3C(F)(F)F)C2=O)c1
fold change (FC) [1]: 0.051
fold change (FC) [2]: >=1.001
fold change (FC) [3]: >=0.201
fold change (FC) [4]: 1.31
fold change (FC) [5]: 1.01
fold change (FC) [6]: 1.01
fold change (FC) [7]: 1.01
IC50 [8]: < 100 nM
fold change (FC) [9]: 1.01
fold change (FC) [10]: 0.801
fold change (FC) [11]: 5

C[C@H](Cc1nncn1C)c1cccc(NC(=O)c2cccc(C(F)(F)F)n2)c1
fold change (FC) [1]: >=0.201
fold change (FC) [2]: >=1.001
fold change (FC) [3]: >=0.201
fold change (FC) [4]: >=1.76
fold change (FC) [5]: >=1.76
fold change (FC) [6]: 2.51
fold change (FC) [7]: >=1.76
IC50 [8]: < 100 nM
fold change (FC) [9]: 5
fold change (FC) [10]: >=1.001
fold change (FC) [11]: >=7.5

CC(c1cc2c(c(C(F)(F)F)c1)CN(c1cccc([C@H]3C[C@H]3c3nncn3C)c1)C2=O)N1CC[C@H](F)C1 (some centres undefined)
fold change (FC) [1]: >=0.201
fold change (FC) [2]: >=1.001
fold change (FC) [3]: >=0.201
fold change (FC) [4]: 1.51
fold change (FC) [5]: 1.51
fold change (FC) [6]: 2.51
fold change (FC) [7]: 1.31
IC50 [8]: < 100 nM
fold change (FC) [9]: >=7.5
fold change (FC) [10]: >=1.001
fold change (FC) [11]: >=7.5

C[C@H](Cc1nncn1C)c1cccc(N2Cc3c(cc(C(=O)N4CC(O)C4)cc3C(F)(F)F)C2=O)c1
fold change (FC) [1]: 0.051
fold change (FC) [2]: >=1.001
fold change (FC) [3]: 0.151
fold change (FC) [4]: 1.31
fold change (FC) [5]: 1.01
fold change (FC) [6]: 1.01
fold change (FC) [7]: 1.01
IC50 [8]: < 100 nM
fold change (FC) [9]: 2.51
fold change (FC) [10]: 0.801
fold change (FC) [11]: >=7.5

Cn1cnnc1CC(C)(C)c1cccc(NC(=O)c2cc(C(=O)N3CC[C@H](O)C3)cc(C(F)(F)F)n2)c1
fold change (FC) [1]: 0.101
fold change (FC) [2]: >=1.001
fold change (FC) [3]: >=0.201
fold change (FC) [4]: 1.01
fold change (FC) [5]: 1.01
fold change (FC) [6]: 1.01
fold change (FC) [7]: 1.01
IC50 [8]: < 100 nM
fold change (FC) [9]: 2.51
fold change (FC) [10]: 0.801
fold change (FC) [11]: 5

C[C@H](Cc1nncn1C)c1cccc(N2Cc3c(cc([C@H](C)N4CC[C@H](F)C4)cc3C(F)(F)F)C2=O)c1
fold change (FC) [1]: >=0.201
fold change (FC) [2]: >=1.001
fold change (FC) [3]: >=0.201
fold change (FC) [4]: 1.31
fold change (FC) [5]: 1.31
fold change (FC) [6]: >=7.5
fold change (FC) [7]: 1.31
IC50 [8]: < 100 nM
fold change (FC) [9]: >=7.5
fold change (FC) [10]: >=1.001
fold change (FC) [11]: >=7.5

Cn1cnnc1CC1(c2cccc(N3Cc4c(cc(CN5CC(C#N)C5)cc4C(F)(F)F)C3=O)c2)COC1
fold change (FC) [1]: 0.151
fold change (FC) [2]: >=1.001
fold change (FC) [3]: >=0.201
fold change (FC) [4]: 1.31
fold change (FC) [5]: 1.01
fold change (FC) [6]: 2.51
fold change (FC) [7]: 1.01
IC50 [8]: < 100 nM
fold change (FC) [9]: 5
fold change (FC) [10]: 0.801
fold change (FC) [11]: >=7.5

C[C@@H](c1cc2c(c(C(F)(F)F)c1)CN(c1cccc([C@@](C)(F)C(F)(F)c3nncn3C)c1)C2=O)N1CC[C@H](F)C1
fold change (FC) [1]: >=0.201
fold change (FC) [2]: >=1.001
fold change (FC) [3]: >=0.201
fold change (FC) [4]: 1.51
fold change (FC) [5]: 1.51
fold change (FC) [6]: >=7.5
fold change (FC) [7]: 1.31
IC50 [8]: < 100 nM
fold change (FC) [9]: >=7.5
fold change (FC) [10]: >=1.001
fold change (FC) [11]: >=7.5

Cc1cc(C(=O)Nc2cccc(C3(Cc4nncn4C)COC3)c2)nc(C(F)(F)F)n1
fold change (FC) [1]: 0.101
fold change (FC) [2]: >=1.001
fold change (FC) [3]: >=0.201
fold change (FC) [4]: 1.01
fold change (FC) [5]: 1.01
fold change (FC) [6]: 1.01
fold change (FC) [7]: 1.01
IC50 [8]: < 100 nM
fold change (FC) [9]: 2.51
fold change (FC) [10]: 0.801
fold change (FC) [11]: >=7.5

C[C@@H](c1cccc(N2Cc3c(cccc3C(F)(F)F)C2=O)c1)[C@@H](F)c1nncn1C (single isomer, unassigned)
fold change (FC) [1]: 0.051
fold change (FC) [2]: >=1.001
fold change (FC) [3]: >=0.201
fold change (FC) [4]: 1.01
fold change (FC) [5]: 1.01
fold change (FC) [6]: 1.01
fold change (FC) [7]: 1.01
IC50 [8]: < 100 nM
fold change (FC) [9]: 1.01
fold change (FC) [10]: 0.601
fold change (FC) [11]: 2.51

Cn1cnnc1CC1(c2cccc(N3Cc4c(cc(CO)cc4C(F)(F)F)C3=O)c2)COC1
fold change (FC) [1]: 0.101
fold change (FC) [2]: 0.601
fold change (FC) [3]: 0.051
fold change (FC) [4]: 1.51
fold change (FC) [5]: 1.31
fold change (FC) [6]: 2.51
fold change (FC) [7]: 1.01
IC50 [8]: < 100 nM
fold change (FC) [9]: 5
fold change (FC) [10]: 0.601
fold change (FC) [11]: >=7.5

C[C@@H]1CN(C)CCN1c1cc2c(c(C(F)(F)F)c1)CN(c1cccc([C@@](C)(F)C(F)(F)c3nncn3C)c1)C2=O
fold change (FC) [1]: <=0.05
fold change (FC) [2]: >=1.001
fold change (FC) [3]: 0.101
fold change (FC) [4]: 1.31
fold change (FC) [5]: 1.01
fold change (FC) [6]: 1.01
fold change (FC) [7]: 1.01
IC50 [8]: < 100 nM
fold change (FC) [9]: 1.01
fold change (FC) [10]: 0.801
fold change (FC) [11]: 2.51

C[C@H](Cc1nncn1C)c1cccc(N2Cc3c(cc(C(=O)N4CC[C@H](O)C4)cc3C3CC3)C2=O)c1
fold change (FC) [1]: 0.051
fold change (FC) [2]: >=1.001
fold change (FC) [3]: 0.101
fold change (FC) [4]: 1.31
fold change (FC) [5]: 1.01
fold change (FC) [6]: 1.01
fold change (FC) [7]: 1.01
IC50 [8]: < 100 nM
fold change (FC) [9]: 2.51
fold change (FC) [10]: 0.801
fold change (FC) [11]: 2.51

C[C@H](Sc1nncn1C)c1cccc(NC(=O)c2ccc(F)c(C3CC3)n2)c1
fold change (FC) [1]: <=0.05
fold change (FC) [2]: >=1.001
fold change (FC) [3]: 0.101
fold change (FC) [4]: 1.01
fold change (FC) [5]: <=1
fold change (FC) [6]: 1.01
fold change (FC) [7]: <=1
IC50 [8]: < 100 nM
fold change (FC) [9]: 2.51
fold change (FC) [10]: 0.601
fold change (FC) [11]: >=7.5

Cc1cc(C(=O)Nc2cccc([C@H](C)Cc3nncn3C)c2)nc(C(F)(F)F)n1
fold change (FC) [1]: >=0.201
fold change (FC) [2]: >=1.001
fold change (FC) [3]: >=0.201
fold change (FC) [4]: >=1.76
fold change (FC) [5]: 1.51
fold change (FC) [6]: 2.51
fold change (FC) [7]: 1.01
IC50 [8]: < 100 nM
fold change (FC) [9]: >=7.5
fold change (FC) [10]: 0.801
fold change (FC) [11]: >=7.5

Cc1cc(C(=O)Nc2cccc(C3(Cc4nncn4C)COC3)c2)nc(C2CC2)c1
fold change (FC) [1]: >=0.201
fold change (FC) [2]: >=1.001
fold change (FC) [3]: >=0.201
fold change (FC) [4]: 1.51
fold change (FC) [5]: 1.31
fold change (FC) [6]: 5
fold change (FC) [7]: 1.31
IC50 [8]: < 100 nM
fold change (FC) [9]: >=7.5
fold change (FC) [10]: >=1.001
fold change (FC) [11]: >=7.5

Cn1cnnc1CC1(c2cccc(N3Cc4c(cc(CN5CC(C)(C#N)C5)cc4C(F)(F)F)C3=O)c2)COC1
fold change (FC) [1]: 0.151
fold change (FC) [2]: <=0.6
fold change (FC) [3]: 0.051
fold change (FC) [4]: 1.51
fold change (FC) [5]: 1.31
fold change (FC) [6]: 2.51
fold change (FC) [7]: 1.01
IC50 [8]: < 100 nM
fold change (FC) [9]: >=7.5
fold change (FC) [10]: 0.601
fold change (FC) [11]: >=7.5

Cn1cnnc1CC(C)(C)c1cccc(NC(=O)c2cccc(C(F)(F)F)n2)c1
fold change (FC) [1]: >=0.201
fold change (FC) [2]: >=1.001
fold change (FC) [3]: >=0.201
fold change (FC) [4]: 1.31
fold change (FC) [5]: 1.01
fold change (FC) [6]: 1.01
fold change (FC) [7]: 1.01
IC50 [8]: < 100 nM
fold change (FC) [9]: 2.51
fold change (FC) [10]: 0.801
fold change (FC) [11]: >=7.5

C[C@H](Sc1nncn1C)c1cccc(NC(=O)c2cc(C3CC3)cc(C(F)(F)F)n2)c1
fold change (FC) [1]: <=0.05
fold change (FC) [2]: >=1.001
fold change (FC) [3]: 0.101
fold change (FC) [4]: 1.01
fold change (FC) [5]: 1.01
fold change (FC) [6]: 1.01
fold change (FC) [7]: 1.01
IC50 [8]: < 100 nM
fold change (FC) [9]: 1.01
fold change (FC) [10]: 0.801
fold change (FC) [11]: 2.51
